# Results reported in patent US20110130397A1, “PYRROLINONE COMPOUNDS AS INHIBITORS OF BACTERIAL PEPTIDYL TRNA HYDROLASE AND USES THEREOF” (priority 2006, published 2011).
# Key:
# [1] = Cytotoxicity (CellTiter 96 Aqueous Non-Radioactive Cell Proliferation Assay); type: cell-based; conditions: human, Huh7 cells
# Method: Novel antibacterial peptidyl tRNA hydrolase inhibitors were identified using the MIC assay (inhibition ranged from 32-100%). The inhibitors were also bacteria specific, as evidenced by the low cytotoxicity observed for the human Huh7 cells (FIG. 4). Cytotoxicity was determined according to manufacturer's directions (CellTiter 96 Aqueous Non-Radioactive Cell Proliferation Assay, Promega).
# Further data for representative compounds is set forth in Table 1 (MIC and cytotoxicity). Compounds were tested against S. aureus (ATCC 29213) and E. coli (BAS849—permeable) in the MIC assays. Certain compounds were also tested against other bacteria, including S. epidermis (ATCC 12228), E. faecium (ATCC 49624), and E. faecalis (ATCC 29212). Cytotoxicity was determined using Hu7 cells and Hep G2 cells. The MIC and cytotoxicity assays were performed as described above.
melting point,Structure (SMILES),CC50 [1]
195 to 197 °C,CC(=O)c1sc(N2C(=O)C(O)=C(C(=O)c3cc4ccccc4o3)C2c2ccc(OCc3ccccc3)cc2)nc1C (stereo not drawn) [Compound 10],> 89 µM
,CCOc1cc(C2C(C(=O)c3cc4ccccc4o3)=C(O)C(=O)N2c2nc(C)c(C(C)=O)s2)ccc1O (stereo not drawn) [Compound 13],59.8 µM
,CCCCCOc1ccc(C2C(C(=O)c3cc4ccccc4o3)=C(O)C(=O)N2c2nc(C)c(C(C)=O)s2)cc1OC (stereo not drawn) [Compound 14],74.2 µM
,O=C(C1=C(O)C(=O)N(c2nnc(SCc3ccc(F)cc3)s2)C1c1cccc(O)c1)c1cc2ccccc2o1 (stereo not drawn) [Compound 15],> 89 µM
,CC(=O)C1=C(O)C(=O)N(c2nccs2)C1c1ccccc1 (stereo not drawn) [Compound 22],29.7 µM
,CCOC(=O)c1sc(N2C(=O)C(O)=C(C(=O)c3ccc(C)cc3)C2c2cccs2)nc1C (stereo not drawn) [Compound 28],89.1 µM
,COC(=O)c1sc(N2C(=O)C(O)=C(C(=O)c3ccc(F)cc3)C2c2ccc(F)cc2)nc1C (stereo not drawn) [Compound 31],46.5 µM
,Cc1nnc(N2C(=O)C(O)=C(C(=O)c3ccc(OC(C)C)cc3)C2c2ccco2)s1 (stereo not drawn) [Compound 33],> 110 µM
,CCOC(=O)c1sc(N2C(=O)C(O)=C(C(=O)c3ccc(F)cc3)C2c2cccs2)nc1C (stereo not drawn) [Compound 40],62.9 µM
,COc1ccc(C(=O)C2=C(O)C(=O)N(c3nccs3)C2c2ccc(Cl)cc2)cc1C (stereo not drawn) [Compound 44],51.5 µM
,CCOC(=O)c1sc(N2C(=O)C(O)=C(C(=O)c3ccco3)C2c2ccco2)nc1C (stereo not drawn) [Compound 45],96.2 µM
,Cc1nc(C)c(C(=O)C2=C(O)C(=O)N(c3nc4ccc(Cl)cc4s3)C2c2cccs2)s1 (stereo not drawn) [Compound 49],> 111 µM
241 to 243 °C,Cc1cnc(N2C(=O)C(O)=C(C(=O)c3cc4ccccc4o3)C2c2ccc(OCc3ccccc3)cc2)s1 (stereo not drawn) [Compound 50],82 µM
213 to 214 °C,O=C(C1=C(O)C(=O)N(c2nc3ccccc3s2)C1c1ccc(OCc2ccccc2)cc1)c1cc2ccccc2o1 (stereo not drawn) [Compound 51],82.3 µM
150 to 154 °C,O=C(C1=C(O)C(=O)N(c2nncs2)C1c1ccc(OCc2ccccc2)cc1)c1cc2ccccc2o1 (stereo not drawn) [Compound 52],> 90 µM
193 to 195 °C,O=C(C1=C(O)C(=O)N(c2nccs2)C1c1ccc(OCc2ccccc2)cc1)c1cc2ccccc2o1 (stereo not drawn) [Compound 53],> 98 µM
205 to 208 °C,CC(=O)c1sc(N2C(=O)C(O)=C(C(=O)c3cc4ccccc4o3)C2c2ccccc2)nc1C (stereo not drawn) [Compound 54],78.5 µM
226 to 228 °C,CC(=O)c1sc(N2C(=O)C(O)=C(C(=O)c3cc4ccccc4o3)C2c2ccc(-c3ccccc3)cc2)nc1C (stereo not drawn) [Compound 55],42.9 µM
251 to 253 °C,CC(=O)c1sc(N2C(=O)C(O)=C(C(=O)c3cc4ccccc4o3)C2c2ccc(Oc3ccccc3)cc2)nc1C (stereo not drawn) [Compound 56],> 984 µM
186 to 188 °C,CCCCOc1ccc(C2C(C(=O)c3cc4ccccc4o3)=C(O)C(=O)N2c2nc(C)c(C(C)=O)s2)cc1 (stereo not drawn) [Compound 57],> 91 µM
169 to 171 °C,Cc1coc(N2C(=O)C(O)=C(C(=O)c3cc4ccccc4o3)C2c2ccc(OCc3ccccc3)cc2)n1 (stereo not drawn) [Compound 58],> 94 µM
,Cc1ccc(C2C(C(=O)c3ccc(Cl)cc3)=C(O)C(=O)N2c2nccs2)cc1 (stereo not drawn) [Compound 59],60.5 µM
,CCc1ccc2nc(N3C(=O)C(O)=C(C(=O)c4ccccc4)C3c3cccs3)sc2c1 (stereo not drawn) [Compound 118],10.8 µM
,CCc1ccc2nc(N3C(=O)C(O)=C(C(=O)c4ccccc4)C3c3ccco3)sc2c1 (stereo not drawn) [Compound 119],10.8 µM
,CCc1ccc2nc(N3C(=O)C(O)=C(C(=O)c4ccco4)C3c3cccs3)sc2c1 (stereo not drawn) [Compound 122],58.2 µM
,Cc1cc(C)c2nc(N3C(=O)C(O)=C(C(=O)c4ccc5c(c4)OCCO5)C3c3cccnc3)sc2c1 (stereo not drawn) [Compound 126],27.4 µM
